According to patent US4753953A, “Pyridonecarboxylic acid derivatives and antibacterial pharmaceutical compositions thereof” (priority 1985, dated 1988):
In brackets after ≈: the same amount, converted by molar mass. Like-named read-outs stand apart in the source and are kept apart here.

What was measured:
[1] = tested on: Peptostreptococcus anaerobius KYA 27337; test: MIC, in vitro antibacterial activity (standard strains); assay type: cell-based; conditions: Peptostreptococcus anaerobius, KYA27337; 10^6 cells/ml; Gram +; read-out: MIC
F. necrophorum S-45 = test: as above; assay type: cell-based; conditions: Fusobacterium necrophorum, S45; 10^6 cells/ml; Gram -; read-out: MIC
[2] = tested on: Salmonella enteritidis IID 604; test: as above; assay type: cell-based; conditions: Salmonella enterica; 10^6 cells/ml; Gram -; read-out: MIC
[3] = tested on: Citrobacter freundii IID 976; test: as above; assay type: cell-based; conditions: Citrobacter freundii, IID976; 10^6 cells/ml; Gram -; read-out: MIC
S. pneumoniae IID 552 = test: as above; assay type: cell-based; conditions: Streptococcus pneumoniae, IID552; 10^6 cells/ml; Gram +; read-out: MIC
E. coli ML 4707 = test: as above; assay type: cell-based, Escherichia coli; conditions: Escherichia coli, ML4707, 10^6 cells/ml; Gram -; Table 1; read-out: MIC
[4] = tested on: Yersinia enterocolitica IID 981; test: as above; assay type: cell-based; conditions: Yersinia enterocolitica, IID981; 10^6 cells/ml; Gram -; read-out: MIC
[5] = tested on: Propionibacterium acens 11828; test: as above; assay type: cell-based; conditions: Propionibacterium, 11828; 10^6 cells/ml; Gram +; read-out: MIC
S. epidermidis IID 866 = test: as above; assay type: cell-based; conditions: Staphylococcus epidermidis, IID866; 10^6 cells/ml; Gram +; read-out: MIC
C. perfringens KYA 13123 = test: microbe, parasite or virus in culture; assay type: cell-based; conditions: Clostridium perfringens, KYA13123
[6] = tested on: Veillonella parvula KYA 10790; test: MIC, in vitro antibacterial activity (standard strains); assay type: cell-based; conditions: Veillonella parvula, KYA10790; 10^6 cells/ml; Gram -; read-out: MIC
[7] = tested on: Acinetobacter anitratus IID 876; test: as above; assay type: cell-based; conditions: Acinetobacter calcoaceticus, IID876; 10^6 cells/ml; Gram -; read-out: MIC
[8] = tested on: Alcaligenes faecalis 0114002; test: as above; assay type: cell-based; conditions: Alcaligenes faecalis, 0114002; 10^6 cells/ml; Gram -; read-out: MIC
E. coli ATCC 10536 = test: as above; assay type: cell-based, Escherichia coli; conditions: Escherichia coli, ATCC10536; 10^6 cells/ml; Gram -; read-out: MIC
[9] = tested on: Bacteroides fragilis GM 7000; test: as above; assay type: cell-based; conditions: Bacteroides fragilis, GM7000; 10^6 cells/ml; Gram -; read-out: MIC
E. limosum KYA 8486 = test: as above; assay type: cell-based; conditions: Eubacterium limosum, KYA8486; 10^6 cells/ml; Gram +; read-out: MIC
C. ramosum = test: as above; assay type: cell-based; conditions: Thomasclavelia ramosa; 10^6 cells/ml; Gram +; read-out: MIC
B. distasonis 8503 = test: as above; assay type: cell-based; conditions: Parabacteroides distasonis, 8503; 10^6 cells/ml; Gram -; read-out: MIC
[10] = tested on: Proteus vulgaris IFO 3167; test: as above; assay type: cell-based; conditions: Proteus vulgaris, IFO3167; 10^6 cells/ml; Gram -; read-out: MIC
[11] = tested on: Clostridium difficile I-E; test: as above; assay type: cell-based; conditions: Clostridioides difficile; 10^6 cells/ml; Gram +
Shigella sonnei IID 969 = test: as above; assay type: cell-based; conditions: Shigella sonnei, IID969; 10^6 cells/ml; Gram -; read-out: MIC
Procedure: Minimal inhibitory concentrations (MICs) were determined in accordance with the method recommended by Japan Society of Chemotherapy.

B. fragilis 25285 = test: as above; assay type: cell-based, Bacteroides fragilis; conditions: Bacteroides fragilis, 25285; 10^6 cells/ml; Gram -; read-out: MIC
S. aureus Smith = test: as above; assay type: cell-based, Staphylococcus aureus; conditions: Staphylococcus aureus; 10^6 cells/ml; Gram +; read-out: MIC
F. varium KYA 8501 = test: as above; assay type: cell-based; conditions: Fusobacterium varium, KYA8501; 10^6 cells/ml; Gram -; read-out: MIC
[12] = tested on: Staphylococcus aureus 209 P; test: as above; assay type: cell-based; conditions: Staphylococcus aureus, 209P; 10^6 cells/ml; Gram +; read-out: MIC
[13] = tested on: Streptococcus pyogenes (S-8); test: as above; assay type: cell-based; conditions: Streptococcus pyogenes; 10^6 cells/ml; Gram +; read-out: MIC
[14] = tested on: Pseudomonas aeruginosa V-1; test: as above; assay type: cell-based; conditions: Pseudomonas aeruginosa, V1
K. pneumoniae 1-220S = test: as above; assay type: cell-based, Klebsiella pneumoniae; conditions: Klebsiella pneumoniae, 1220S; 10^6 cells/ml; Gram -; read-out: MIC
[15] = tested on: Fusobacterium mortiferum 4249; test: as above; assay type: cell-based; conditions: Fusobacterium mortiferum, 4249; 10^6 cells/ml; Gram -; read-out: MIC
B. fragilis 0558 = test: as above; assay type: cell-based, Bacteroides fragilis; conditions: Bacteroides fragilis, 0558; 10^6 cells/ml; Gram -; read-out: MIC
[16] = tested on: Bacillus subtilis PCI 219; test: as above; assay type: cell-based; conditions: Bacillus subtilis, PCI219; 10^6 cells/ml; Gram +; read-out: MIC
E. faecalis IID 682 = test: as above; assay type: cell-based; conditions: Enterococcus faecalis, IID682; 10^6 cells/ml; Gram +; read-out: MIC

Structure (SMILES) | MIC [1] | MIC (F. necrophorum S-45) | MIC [2] | MIC [3] | MIC (S. pneumoniae IID 552) | MIC (E. coli ML 4707) | MIC [4] | MIC [5] | MIC (S. epidermidis IID 866) | MIC (C. perfringens KYA 13123) | MIC [6] | MIC [7] | MIC [8] | MIC (E. coli ATCC 10536) | MIC [9] | MIC (E. limosum KYA 8486) | MIC (C. ramosum) | MIC (B. distasonis 8503) | MIC [10] | MIC [11] | other results
C[C@H]1CN(c2cc3c(cc2F)c(=O)c(C(=O)O)cn3C2CC2)C[C@H]1N (relative stereo) [Example 33, 7-(cis-3-Amino-4-methyl-1-pyrrolidinyl)-1-cyclopropyl-6-fluoro-1,4-dihydro-4-oxo-3-quinolinecarboxylic acid] | 1.56 µg/mL (≈ 4.52 µM) | 1.56 µg/mL (≈ 4.52 µM) | 0.05 µg/mL (≈ 0.145 µM) | 0.05 µg/mL (≈ 0.145 µM) | 0.39 µg/mL (≈ 1.13 µM) | 0.05 µg/mL (≈ 0.145 µM) | 0.05 µg/mL (≈ 0.145 µM) | 12.5 µg/mL (≈ 36.2 µM) | 0.1 µg/mL (≈ 0.29 µM) | 0.78 µg/mL (≈ 2.26 µM) | 0.39 µg/mL (≈ 1.13 µM) | 0.1 µg/mL (≈ 0.29 µM) | 0.2 µg/mL (≈ 0.579 µM) | 0.05 µg/mL (≈ 0.145 µM) | 1.56 µg/mL (≈ 4.52 µM) | 0.2 µg/mL (≈ 0.579 µM) | 6.25 µg/mL (≈ 18.1 µM) | 6.25 µg/mL (≈ 18.1 µM) | 0.05 µg/mL (≈ 0.145 µM) | 6.25 µg/mL | MIC (Shigella sonnei IID 969): 0.05 µg/mL (≈ 0.145 µM); MIC (B. fragilis 25285): 1.56 µg/mL (≈ 4.52 µM); MIC (S. aureus Smith): 0.1 µg/mL (≈ 0.29 µM); MIC (F. varium KYA 8501): 12.5 µg/mL (≈ 36.2 µM); MIC [12]: 0.05 µg/mL (≈ 0.145 µM); MIC [13]: 0.78 µg/mL (≈ 2.26 µM); MIC ([14]; 10^6 cells/ml, Gram -, read-out: MIC): 0.2 µg/mL (≈ 0.579 µM); MIC (K. pneumoniae 1-220S): 0.05 µg/mL (≈ 0.145 µM); MIC [15]: 1.56 µg/mL (≈ 4.52 µM); MIC (B. fragilis 0558): 1.56 µg/mL (≈ 4.52 µM); MIC [16]: 0.05 µg/mL (≈ 0.145 µM); MIC (E. faecalis IID 682): 0.39 µg/mL (≈ 1.13 µM)
C[C@@H]1CN(c2c(F)cc3c(=O)c(C(=O)O)cn(C4CC4)c3c2Br)C[C@H]1N (relative stereo) [Example 32, 7-(trans-3-Amino-4-methyl-1-pyrrolidinyl)-8-bromo-1-cyclopropyl-6-fluoro-1,4-dihydro-4-oxo-3-quinolinecarboxylic acid] | 0.2 µg/mL (≈ 0.471 µM) | 0.1 µg/mL (≈ 0.236 µM) | 0.05 µg/mL (≈ 0.118 µM) | 0.025 µg/mL (≈ 0.0589 µM) | 0.1 µg/mL (≈ 0.236 µM) | 0.0125 µg/mL (≈ 0.0295 µM) | 0.025 µg/mL (≈ 0.0589 µM) | 1.56 µg/mL (≈ 3.68 µM) | 0.05 µg/mL (≈ 0.118 µM) | 0.2 µg/mL (≈ 0.471 µM) | 0.1 µg/mL (≈ 0.236 µM) | 0.025 µg/mL (≈ 0.0589 µM) | 0.1 µg/mL (≈ 0.236 µM) | 0.0125 µg/mL (≈ 0.0295 µM) | 0.1 µg/mL (≈ 0.236 µM) | 0.1 µg/mL (≈ 0.236 µM) | 0.78 µg/mL (≈ 1.84 µM) | 0.2 µg/mL (≈ 0.471 µM) | 0.0125 µg/mL (≈ 0.0295 µM) | 0.78 µg/mL | MIC (Shigella sonnei IID 969): 0.0063 µg/mL (≈ 0.0148 µM); MIC (B. fragilis 25285): 0.1 µg/mL (≈ 0.236 µM); MIC (S. aureus Smith): 0.025 µg/mL (≈ 0.0589 µM); MIC (F. varium KYA 8501): 0.78 µg/mL (≈ 1.84 µM); MIC [12]: 0.025 µg/mL (≈ 0.0589 µM); MIC [13]: 0.1 µg/mL (≈ 0.236 µM); MIC [14]: 0.2 µg/mL (≈ 0.471 µM); MIC (K. pneumoniae 1-220S): 0.05 µg/mL (≈ 0.118 µM); MIC [15]: 0.2 µg/mL (≈ 0.471 µM); MIC (B. fragilis 0558): 0.05 µg/mL (≈ 0.118 µM); MIC [16]: 0.0125 µg/mL (≈ 0.0295 µM); MIC (E. faecalis IID 682): 0.2 µg/mL (≈ 0.471 µM)
